Here are results for 16 compounds from patent US20260258035A1, “FIVE-MEMBERED AND SIX-MEMBERED NITROGEN-CONTAINING COMPOUND, AND INTERMEDIATE, PREPARATION METHOD AND USE THEREOF” (HANGZHOU SYNRX THERAPEUTICS BIOMEDICAL TECHNOLOGY CO., LTD., priority 2022, published 2026).

One experiment addresses PARG (Homo sapiens, UniProt Q86W56). As to the kind of experiment: Biochemical assay (PARG, TFMU-ADPr substrate). As to conditions: PARG, TFMU-ADPr substrate.
A further experiment has as its system HCC1806. As to the kind of experiment: Cell viability assay (CellTiter-Glo). The class given is cell-based, Human. As to conditions: Homo sapiens, HCC1806, 168 h, HCC1806, 7 days, CellTiter-Glo; read-out: IC50 (nM) in cell viability assay. In general terms: ATP-based viability assays read luminescence as a measure of living cells.

PARG, sequence (Q86W56 whole entry): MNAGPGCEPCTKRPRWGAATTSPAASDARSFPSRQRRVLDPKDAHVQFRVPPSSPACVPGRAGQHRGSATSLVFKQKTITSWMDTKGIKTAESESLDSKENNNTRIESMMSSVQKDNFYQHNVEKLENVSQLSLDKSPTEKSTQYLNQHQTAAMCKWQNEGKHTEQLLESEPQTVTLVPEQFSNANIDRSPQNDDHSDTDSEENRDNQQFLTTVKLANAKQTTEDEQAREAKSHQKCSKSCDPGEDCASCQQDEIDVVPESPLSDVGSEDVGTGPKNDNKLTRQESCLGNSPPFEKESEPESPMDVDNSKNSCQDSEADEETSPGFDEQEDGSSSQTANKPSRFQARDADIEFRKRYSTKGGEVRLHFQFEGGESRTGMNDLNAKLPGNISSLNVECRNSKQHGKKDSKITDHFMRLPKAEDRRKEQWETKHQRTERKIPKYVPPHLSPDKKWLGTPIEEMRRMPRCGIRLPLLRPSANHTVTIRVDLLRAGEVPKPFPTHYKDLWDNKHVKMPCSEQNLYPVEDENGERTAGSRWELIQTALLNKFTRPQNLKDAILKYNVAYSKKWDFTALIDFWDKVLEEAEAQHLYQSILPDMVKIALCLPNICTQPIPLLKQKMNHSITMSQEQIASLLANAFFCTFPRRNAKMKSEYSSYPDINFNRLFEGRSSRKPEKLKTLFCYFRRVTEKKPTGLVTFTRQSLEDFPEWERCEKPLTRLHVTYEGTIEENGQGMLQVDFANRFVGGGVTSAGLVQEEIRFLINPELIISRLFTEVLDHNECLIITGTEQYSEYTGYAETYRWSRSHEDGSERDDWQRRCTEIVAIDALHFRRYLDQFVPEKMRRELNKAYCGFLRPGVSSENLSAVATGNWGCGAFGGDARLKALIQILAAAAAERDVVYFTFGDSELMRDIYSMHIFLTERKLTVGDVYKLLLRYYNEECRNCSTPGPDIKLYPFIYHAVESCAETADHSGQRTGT

As a reminder, the IC50 is the concentration at which inhibition is half-maximal. Take `CC1(NS(=O)(=O)c2cc(N3CCN(C(=O)[C@H]4CCN4CCCF)CC3)c3cnc(-c4nnc(C(F)(F)F)s4)n3c2)CC1` [Example 319, (R)-8-(4-(1-(3-fluoropropyl)azetidine-2-carbonyl)piperazin-1-yl)-N-(1-methylcyclopropyl)-3-(5-(trifluoromethyl)-1,3,4-thiadiazol-2-yl)imidazo[1,5-a]pyridine-6-sulfonamide]: the half-inhibitory concentration (IC50) against PARG was determined as 5.62 nM; in the experiment on HCC1806 it was 147 nM.

Consider `CC1(NS(=O)(=O)c2cc(N3CCN(C(=O)[C@H]4CCN4CCF)CC3)c3cnc(-c4nnc(C(F)(F)F)s4)n3c2)CC1` [Example 320, (R)-8-(4-(1-(2-fluoroethyl)azetidine-2-carbonyl)piperazin-1-yl)-N-(1-methylcyclopropyl)-3-(5-(trifluoromethyl)-1,3,4-thiadiazol-2-yl)imidazo[1,5-a]pyridine-6-sulfonamide], for which the half-inhibitory concentration (IC50) against PARG turned out to be 2.71 nM; in the experiment on HCC1806, 93.9 nM.

`CC1(NS(=O)(=O)c2cc(N3CCN(C(=O)C4(C)CCN4)CC3)c3cnc(-c4nnc(C(F)(F)F)s4)n3c2)CC1` (centres unmarked) [Example 321, 8-(4-(2-methylazetidine-2-carbonyl)piperazin-1-yl)-N-(1-methylcyclopropyl)-3-(5-(trifluoromethyl)-1,3,4-thiadiazol-2-yl)imidazo[1,5-a]pyridine-6-sulfonamide]: the IC50 turned out to be 2.93 nM against PARG and 175 nM with HCC1806.

As to `CN1CC(F)(C(=O)N2CCN(c3cc(S(=O)(=O)NC4(C)CC4)cn4c(-c5nnc(C(F)(F)F)s5)ncc34)CC2)C1` [Example 322, 8-(4-(3-fluoro-1-methylazetidine-3-carbonyl)piperazin-1-yl)-N-(1-methylcyclopropyl)-3-(5-(trifluoromethyl)-1,3,4-thiadiazol-2-yl)imidazo[1,5-a]pyridine-6-sulfonamide], the concentration for half-maximal inhibition (IC50) is 16.5 nM at PARG and 334 nM in the experiment on HCC1806.

With `CC1(NS(=O)(=O)c2cc(N3CCN(C(=O)[C@H]4C[C@H](F)CN4)CC3)c3cnc(-c4nnc(C(F)(F)F)s4)n3c2)CC1` [Example 323, 8-(4-((2R,4S)-4-fluoropyrrolidine-2-carbonyl)piperazin-1-yl)-N-(1-methylcyclopropyl)-3-(5-(trifluoromethyl)-1,3,4-thiadiazol-2-yl)imidazo[1,5-a]pyridine-6-sulfonamide], the concentration for half-maximal inhibition (IC50) against PARG turned out to be 5.41 nM; in the experiment on HCC1806, 181 nM.

In the case of `CN1CCC[C@@H]1C(=O)N1CCN(c2cc(S(=O)(=O)NC3(C)CC3)cn3c(-c4nnc(C(F)(F)F)s4)ncc23)CC1` [Example 325, 8-(4-(methyl-D-prolyl)piperazin-1-yl)-N-(1-methylcyclopropyl)-3-(5-(trifluoromethyl)-1,3,4-thiadiazol-2-yl)imidazo[1,5-a]pyridine-6-sulfonamide], the results for the IC50 against PARG and in the experiment on HCC1806 were 4.46 nM and 120 nM, respectively.

As to `CC1(NS(=O)(=O)c2cc(N3CCN(C(=O)C4NCCS4)CC3)c3cnc(-c4nnc(C(F)(F)F)s4)n3c2)CC1` (centres unmarked) [Example 326, N-(1-methylcyclopropyl)-8-(4-(thiazolidine-2-carbonyl)piperazin-1-yl)-3-(5-(trifluoromethyl)-1,3,4-thiadiazol-2-yl)imidazo[1,5-a]pyridine-6-sulfonamide], the IC50 worked out at 4.82 nM against PARG and 257 nM with HCC1806.

For the compound `COC1(C(=O)N2CCN(c3cc(S(=O)(=O)NC4(C)CC4)cn4c(-c5nnc(C(F)(F)F)s5)ncc34)CC2)CCC1` [Example 327, 8-(4-(1-methoxycyclobutane-1-carbonyl)piperazin-1-yl)-N-(1-methylcyclopropyl)-3-(5-(trifluoromethyl)-1,3,4-thiadiazol-2-yl)imidazo[1,5-a]pyridine-6-sulfonamide], the half-maximal inhibitory concentration (IC50) was found to be 0.15 nM against PARG and 6.13 nM with HCC1806.

With `COC(C)C(=O)N1CCN(c2cc(S(=O)(=O)NC3(C)CC3)cn3c(-c4nnc(C(F)(F)F)s4)ncc23)CC1` (centres unmarked) [Example 328, 8-(4-(2-methoxypropanoyl)piperazin-1-yl)-N-(1-methylcyclopropyl)-3-(5-(trifluoromethyl)-1,3,4-thiadiazol-2-yl)imidazo[1,5-a]pyridine-6-sulfonamide], the concentration for half-maximal inhibition (IC50) worked out at 1.21 nM on PARG and 55.6 nM in the experiment on HCC1806.

Consider `CC1(NS(=O)(=O)c2cc(N3CCN(C(=O)c4ccno4)CC3)c3cnc(-c4nnc(C(F)(F)F)s4)n3c2)CC1` [Example 329, 8-(4-(isoxazole-5-carbonyl)piperazin-1-yl)-N-(1-methylcyclopropyl)-3-(5-(trifluoromethyl)-1,3,4-thiadiazol-2-yl)imidazo[1,5-a]pyridine-6-sulfonamide], for which the 50% inhibitory concentration (IC50) on PARG stood at 7.64 nM; in the experiment with HCC1806, 187 nM.

On to `CC(C)C(=O)N1CCN(c2cc(S(=O)(=O)NC3(C)CC3)cn3c(-c4nnc(C(F)F)s4)ncc23)C[C@H]1CO` [Example 331, (S)-3-(5-(difluoromethyl)-1,3,4-thiadiazol-2-yl)-8-(3-(hydroxymethyl)-4-isobutyrylpiperazin-1-yl)-N-(1-methylcyclopropyl)imidazo[1,5-a]pyridine-6-sulfonamide], for which the half-inhibitory concentration (IC50) at PARG is 0.44 nM; with HCC1806, 78.1 nM.

As for `CN1CC[C@@H]1C(=O)N1CCN(c2c(F)c(S(=O)(=O)NC3(C)CC3)cn3c(-c4nnc(C(F)(F)F)s4)ncc23)CC1` [Example 332, (R)-7-fluoro-8-(4-(1-methylazetidine-2-carbonyl)piperazin-1-yl)-N-(1-methylcyclopropyl)-3-(5-(trifluoromethyl)-1,3,4-thiadiazol-2-yl)imidazo[1,5-a]pyridine-6-sulfonamide], the concentration for half-maximal inhibition (IC50) worked out at 10.8 nM on PARG and 745 nM with HCC1806.

For the compound `CN1CC(C(=O)N2CCN(c3cc(S(=O)(=O)NC4(C)CC4)cn4c(-c5nnc(C(F)(F)F)s5)ncc34)CC2)C1` [Example 333, 8-(4-(1-methylazetidine-3-carbonyl)piperazin-1-yl)-N-(1-methylcyclopropyl)-3-(5-(trifluoromethyl)-1,3,4-thiadiazol-2-yl)imidazo[1,5-a]pyridine-6-sulfonamide], the half-maximal inhibitory concentration (IC50) stood at 3.83 nM against PARG and 310 nM with HCC1806.

As for `Cc1ncn(CC(=O)N2CCN(c3cc(S(=O)(=O)NC4(C)CC4)cn4c(-c5nnc(C(F)(F)F)s5)ncc34)CC2)n1` [Example 334, 8-(4-(2-(3-methyl-1H-1,2,4-triazol-1-yl)acetyl)piperazin-1-yl)-N-(1-methylcyclopropyl)-3-(5-(trifluoromethyl)-1,3,4-thiadiazol-2-yl)imidazo[1,5-a]pyridine-6-sulfonamide], the IC50 against PARG stood at 6.31 nM; in the experiment on HCC1806, 354 nM.

For `Cc1ncnn1CC(=O)N1CCN(c2cc(S(=O)(=O)NC3(C)CC3)cn3c(-c4nnc(C(F)(F)F)s4)ncc23)CC1` [Example 335, 8-(4-(2-(5-methyl-1H-1,2,4-triazol-1-yl)acetyl)piperazin-1-yl)-N-(1-methylcyclopropyl)-3-(5-(trifluoromethyl)-1,3,4-thiadiazol-2-yl)imidazo[1,5-a]pyridine-6-sulfonamide], the 50% inhibitory concentration (IC50) was found to be 6.55 nM at PARG and 480 nM in the experiment with HCC1806.

For `CN(C)CC1(O)CCN(c2cc(S(=O)(=O)NC3(C)CC3)cn3c(-c4nnc(C(F)F)s4)ncc23)CC1` [Example 337, 3-(5-(difluoromethyl)-1,3,4-thiadiazol-2-yl)-8-(4-((dimethylamino)methyl)-4-hydroxypiperidin-1-yl)-N-(1-methylcyclopropyl)imidazo[1,5-a]pyridine-6-sulfonamide], the values for the concentration for half-maximal inhibition (IC50) against PARG and with HCC1806 were 4.82 nM and 245 nM, respectively.
